B1: sPSGL-1: recombinant soluble form of human PSGL-1 comprising the entire extracellular domain, expressed in CHO cells (protein, UniProt Q14242 18-320, looked up)
extracellular domain: LQLWDTWADEAEKALGPLLARDRRQATEYEYLDYDFLPETEPPEMLRNSTDTTPLTGPGTPESTTVEPAARRSTGLDAGGAVTELTTELANMGNLSTDSAAMEIQTTQPAATEAQTTQPVPTEAQTTPLAATEAQTTRLTATEAQTTPLAATEAQTTPPAATEAQTTQPTGLEAQTTAPAAMEAQTTAPAAMEAQTTPPAAMEAQTTQTTAMEAQTTAPEATEAQTTQPTATEAQTTPLAAMEALSTEPSATEALSMEPTTKRGLFIPFSVSSVTHKGIPMAASNLSVNYPVGAPDHISVKQC
modifications: extracellular domain

Tests used:
P-selectin [1] = conditions: ref Leppänen et al., 2000; cited from earlier work
P-selectin [2] = assay type: binding; conditions: intermediate or high densities of P-selectin, as a function of wall shear stress

Row | Molecule | Affinity for P-selectin (in words) (P-selectin [1]) | Initial tethering of ligand-coupled microspheres to P-selectin (in words) (P-selectin [2])
1 | CC(=O)N[C@H]1[C@H]([C@H](O)[C@H](O)CO)O[C@@](O[C@H]2[C@@H](O)[C@@H](CO)O[C@@H](O[C@@H]([C@H](O[C@@H]3O[C@@H](C)[C@@H](O)[C@@H](O)[C@@H]3O)[C@H](C=O)NC(C)=O)[C@H](O)CO)[C@@H]2O)(C(=O)O)C[C@@H]1O [sLe^x, sialyl Lewis x] | very low affinity | 
2 | B1 |  | tethered at identical rates

Source: article PMC2174028 (The Journal of Cell Biology, 2002)
